This note sets out measurements from patent publication US10358500B2, “Humanized antibodies that bind LGR5” (Bionomics Inc., priority 2014, dated 2019).

The test system of test [1] is LGR5. In words: LGR5 expression in treated CRC cell lines by flow cytometry. The test is classed as cell-based. The following applies: 1 um, 72 hrs. As to the method:
A panel of CRC cell lines including DLD1, HCT116, LS174t, LoVo, SW48, SW480 and SW620 were treated with a PI3K/mTOR dual inhibitor (NVP) or 2 different cytotoxic agents including SN38 (active metabolite of Irinotecan) or 5FU (5 fluorouracil). Cells were treated with the above agents at 1 um and were harvested after 72 hrs. Cells were then stained with anti-LGR5 Mab conjugated to Alexa Fluor647 and the data were analyzed by flow cytometry using a FACScalibur.

A further test deals with PANC1 cancer stem cells. The experiment in a line: limiting dilution re-implant of treated PANC1 tumors. Conditions: gemcitabine alone. The test is classed as in vivo, mice. An excerpt:
Tumors cells from these treatment groups were harvested, dissociated, pooled and re-implanted in a limiting dilution assay (500, 1500, 4500 or 13500 cells/animal) into a new cohort of CB.17 SCID mice and allowed to grow with no treatment.

Test [2] relates to LGR5. The experiment in a line: LGR5 expression in treated pancreatic cell lines by flow cytometry. The test is classed as cell-based. As to the method:
In addition to CRC cell lines to further expand the above findings, expression of LGR5 was investigated in a series of pancreatic cell lines treated with relevant standard of care including nab-paclitaxel, gemcitabine and taxol and also small molecule inhibitors targeting most relevant pathways in pancreatic cancer such as inhibitors of PI3K, MEK and GSK3β. The pancreatic cell lines that were tested include: AsPc1, HPAFII, PANC1, BxPC3, CFPAC, PANC10.05, Capan2 and SW1990.
In general terms: In flow cytometry, cells or beads pass a laser one at a time.

For another test, the system named is AsPC-1 cancer stem cells. In words: limiting dilution experiment, AsPC-1 tumors. The test is classed as in vivo, mice. The following applies: day 40 post treatment, gemcitabine single agent.

Molecules are shown by their SMILES.

As to `O=c1[nH]cc(F)c(=O)[nH]1` [5FU, 5 fluorouracil], the “LGR5 expression by flow cytometry” value with LGR5 [1] (any of the CRC lines (DLD1, HCT116, LS174t, LoVo, SW48, SW480, SW620)) is “did not induce LGR5 expression”.

Consider `CCc1c2c(nc3ccc(O)cc13)-c1cc3c(c(=O)n1C2)COC(=O)[C@]3(O)CC` [SN38], for which, in the test with LGR5 [1] (HCT116, LS174t, SW48, SW480 and especially SW620 cells), the “LGR5 expression by flow cytometry” value is “promoted LGR5 expression”.

Consider `Nc1ccn([C@@H]2O[C@H](CO)[C@@H](O)C2(F)F)c(=O)n1` [gemcitabine, reference compound], for which the frequency of engraftment is recorded as 40% in the test with PANC1 cancer stem cells (PANC1, 4500 cells) and 100% with PANC1 cancer stem cells (PANC1, 13500 cells). Besides, the “LGR5 expression by flow cytometry” value in the test with LGR5 [2] (PANC1) was “upregulates LGR5”. For the same compound, the “percentage of tumor bearing mice” value with AsPC-1 cancer stem cells (AsPC-1, 4500 cells) stood at 40%; in the test on AsPC-1 cancer stem cells (AsPC-1, 13500 cells) it was 80%.

With `CC(=O)O[C@H]1C(=O)[C@@]2(C)[C@H]([C@H](OC(=O)c3ccccc3)[C@]3(O)C[C@H](OC(=O)[C@H](O)[C@@H](NC(=O)c4ccccc4)c4ccccc4)C(C)=C1C3(C)C)[C@]1(OC(C)=O)CO[C@@H]1C[C@@H]2O` [taxol], the “LGR5 expression by flow cytometry” value with LGR5 [2] (HPAFII) is recorded as “increased LGR5 expression”.
